Measured values published in PubChem BioAssay (NCI).
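48-hour exposure; five concentrations; linearly interpolated endpoints. TGI: total growth inhibition.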

What was measured:
Test in all cases: NCI anticancer screen, dose series, 48 h
MOLT-4 leukemia = tested on: MOLT-4 leukemia
SF-295 CNS = tested on: SF-295 CNS
OVCAR-5 ovarian = tested on: OVCAR-5 ovarian
M14 melanoma = tested on: M14 melanoma
NCI/ADR-RES ovarian = tested on: NCI/ADR-RES ovarian
SK-MEL-5 melanoma = tested on: SK-MEL-5 melanoma
HOP-92 NSCLC = tested on: HOP-92 NSCLC
UO-31 renal = tested on: UO-31 renal
NCI-H226 lung = tested on: NCI-H226 lung
SR leukemia = tested on: SR leukemia
BT-549 breast = tested on: BT-549 breast
OVCAR-4 ovarian = tested on: OVCAR-4 ovarian
SNB-75 CNS = tested on: SNB-75 CNS
MDA-MB-435 = tested on: MDA-MB-435
UACC-62 melanoma = tested on: UACC-62 melanoma
KM12 colon = tested on: KM12 colon
HCT-15 colon = tested on: HCT-15 colon
CCRF-CEM leukemia = tested on: CCRF-CEM leukemia
NCI-H23 lung = tested on: NCI-H23 lung
HCC-2998 colon = tested on: HCC-2998 colon

| Compound | TGI (MOLT-4 leukemia) [µM] | TGI (SF-295 CNS) [µM] | TGI (OVCAR-5 ovarian) [µM] | TGI (M14 melanoma) [µM] | TGI (NCI/ADR-RES ovarian) [µM] | TGI (SK-MEL-5 melanoma) [µM] | TGI (HOP-92 NSCLC) [µM] | TGI (UO-31 renal) [µM] | TGI (NCI-H226 lung) [µM] | TGI (SR leukemia) [µM] | TGI (BT-549 breast) [µM] | TGI (OVCAR-4 ovarian) [µM] | TGI (SNB-75 CNS) [µM] | TGI (MDA-MB-435) [µM] | TGI (UACC-62 melanoma) [µM] | TGI (KM12 colon) [µM] | TGI (HCT-15 colon) [µM] | TGI (CCRF-CEM leukemia) [µM] | TGI (NCI-H23 lung) [µM] | TGI (HCC-2998 colon) [µM] |
| --- | --- | --- | --- | --- | --- | --- | --- | --- | --- | --- | --- | --- | --- | --- | --- | --- | --- | --- | --- | --- |
| COc1ccc(N2C(=O)/C(=C/c3ccc(N(CCC#N)CCC#N)cc3)N=C2c2ccccc2)cc1 | > 100 | > 100 | > 100 | > 100 | > 100 | > 100 | > 100 | > 100 | > 100 | > 100 | > 100 | > 100 | > 100 | > 100 | > 100 | > 100 | > 100 |  |  |  |
| Nc1ccn(C2CCC(COP(=O)(O)OCC(O)COP(=O)(O)OCC3OC(n4cc(F)c(=O)[nH]c4=O)CC3O)O2)c(=O)n1 (stereo not drawn) | > 100 | > 100 | > 100 | > 100 | > 100 | > 21 | 4.59 | > 100 | > 100 |  | > 100 | > 100 | > 100 | > 100 |  | > 100 | > 100 | > 100 | > 100 | > 100 |
| COC(=O)c1ccccc1C1CN=NC12Cc1ccc3c(c1C2=O)CCC3 (stereo not drawn) | > 100 | > 100 | > 100 | > 100 | > 100 | > 100 | > 100 | > 100 | > 100 |  | > 100 | > 100 | > 100 | > 100 | > 100 | > 100 | > 100 | > 100 | > 100 | > 100 |
| CC(C)(C)OC(=O)N1N=CCC1c1ccccc1 (stereo not drawn) |  | > 100 | > 100 | > 100 | > 100 | > 100 | > 100 | > 100 | > 100 | > 100 |  |  | > 100 | > 100 | > 100 | > 100 | > 100 | > 100 | > 100 | > 100 |
| O=C1c2cccnc2-c2nccc3c2c1nc1ccccc13 | 3.2 | 0.194 | 1.65 | 0.269 | 0.673 | 0.168 | 2.54 | 0.634 | 0.738 |  | 0.618 | 3.56 | 1.76 | 0.444 | 0.541 | 1.03 | 0.202 | 10.2 | 0.518 |  |
| O=C1CC(c2ccccc2)n2c(nc3ccccc32)N1 (stereo not drawn) | > 100 | > 100 | > 100 | > 100 | > 100 | 42.8 | > 100 | > 100 | > 100 | > 100 | > 100 | > 100 |  | > 100 | > 100 | > 100 | > 100 |  | > 100 |  |
| CC(=O)NC(C)(C)C1CCC(C)CC1 (stereo not drawn) | > 100 | > 100 | > 100 | > 100 | > 100 | > 100 |  | > 100 | > 100 | > 100 | > 100 | > 100 | > 100 | > 100 | > 100 | > 100 | > 100 | > 100 | > 100 | > 100 |
| COc1cccc(OC)c1NC(=O)C(=O)Nn1c(NNC(=O)c2ccncc2)nc2ccccc2c1=O | > 100 | > 100 | > 100 | > 100 | > 100 | > 100 | > 100 | > 100 | > 100 |  | > 100 | > 100 | > 100 | > 100 | > 100 | > 100 | > 100 | > 100 | > 100 | > 100 |
| O=c1c2c3c(sc2nc2n1NC=NN2)CCCC3 | 31.7 | 30.2 | 35.9 | > 57 | 65.5 | 31.7 | 38.5 | > 64.3 | 49.8 |  | 31.8 | 34.1 | 59.1 | 26.4 | 35.8 | 34.1 | 37.5 | 4.88 | > 62.6 | 51.7 |
| Cc1nc2ccc(NC3OCC(O)C(O)C3O)cc2c(=O)n1-c1ccccc1 (stereo not drawn) | > 100 | > 100 | > 100 |  | > 100 | > 100 |  | > 100 | > 100 | > 100 | > 100 | > 100 | > 100 | > 100 | > 100 | > 100 | > 100 |  | > 100 | > 100 |
| O=c1[nH]c2ccc(CC(=S)N3CCOCC3)cc2o1 | > 100 | > 100 | > 100 | > 100 | > 100 |  |  |  | > 100 | > 100 | > 100 |  | > 100 | > 100 | > 100 | > 100 | > 100 | > 100 | > 100 |  |
| COc1ccc(Nc2nc(N)c(C(=O)c3ccc(Cl)cc3)s2)cc1 |  | 15.1 | 34.7 | > 64.4 | 29.7 | 2.19 | > 93.3 | 16 | 0.117 |  | > 73.6 | 2.65 | 24.8 | < 0.01 | > 94.5 | 0.536 | 5.49 |  | 6.78 | 3.47 |
| CCCCCCCCCCCCOC1C(COCCN2CCCCC2)OC2OC(C)(C)OC21 (stereo not drawn) | 3.74 | 3.15 | 4.23 | 2.99 | 14.4 | 2.93 |  | 3.22 | 17.6 |  | 5.8 |  |  | 3.17 | 3.27 | 3.06 | 3.2 | 2.99 | 6.06 | 3.01 |
